Structures can show the parent of a compound that is named as a salt.
What follows are compounds tested on XBP1s-luc 293 LUC (assay: cellular PD assay, XBP1s-LUC reporter (Example 903)). Conditions: Table 1; read-out: XBP1s-luc 293 LUC (IC50).
Type: cell-based
In short: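 Cellular IRE1α pathway activity was quantified from the luciferase signal of an XBP1-Luc reporter, where the luciferase fusion is in frame and expressed only from the spliced XBP1 transcript.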

In order of falling IC50:
1. Cc1ccc2c(N3CC[C@@H](CF)C3=O)cccc2c1Oc1ncccc1-c1ccnc(N[C@H]2CCCNC2)n1 [Example 315, (R)-3-(Fluoromethyl)-1-(6-methyl-5-((3-(2-(((S)-piperidin-3-yl)amino)pyrimidin-4-yl)pyridin-2-yl)oxy)naphthalen-1-yl)pyrrolidin-2-one]  0.471 µM
2. Cc1ccc2c(NS(=O)(=O)Cc3ccccn3)cccc2c1Oc1ncccc1-c1ccnc(N[C@@H]2CNC[C@H](F)C2)n1 [Example 225, N-(5-((3-(2-(((3S,5R)-5-Fluoropiperidin-3-yl)amino)pyrimidin-4-yl)pyridin-2-yl)oxy)-6-methylnaphthalen-1-yl)-1-(pyridin-2-yl)methanesulfonamide]  0.467 µM
3. Cc1ccc2c(N3C(=O)C4CCCC43)cccc2c1Oc1ncccc1-c1ccnc(N[C@H]2CCCNC2)n1 (single isomer, unassigned) [Example 248]  0.457 µM
4. Cc1ccc2c(NC[C@H](C)O)cccc2c1Oc1ncccc1-c1ccnc(N[C@H]2CCCNC2)n1 [Example 301, (S)-1-((6-Methyl-5-((3-(2-((S)-piperidin-3-ylamino)pyrimidin-4-yl)pyridin-2-yl)oxy)naphthalen-1-yl)amino)propan-2-ol]  0.424 µM
5. Cc1ccc2c(NCc3cnn(C)c3)cccc2c1Oc1ncccc1-c1ccnc(N[C@H]2CCCNC2)n1 [Example 265, (S)-4-(2-((2-Methyl-5-(((1-methyl-1H-pyrazol-4-yl)methyl)amino)naphthalen-1-yl)oxy)pyridin-3-yl)-N-(piperidin-3-yl)pyrimidin-2-amine]  0.393 µM
6. Cc1ccc2c(NS(=O)(=O)N3CCCCC3)cccc2c1Oc1ncccc1-c1ccnc(N[C@H]2CCCNC2)n1 [Example 114, (S)—N-(6-Methyl-5-((3-(2-(piperidin-3-ylamino)pyrimidin-4-yl)pyridin-2-yl)oxy)naphthalen-1-yl)piperidine-1-sulfonamide hydrochloride]  0.382 µM
7. Cc1ccc2c(NCCCC(F)(F)F)cccc2c1Oc1ncccc1-c1ccnc(N[C@H]2CCCNC2)n1 [Example 344, (S)-4-(2-((2-Methyl-5-((4,4,4-trifluorobutyl)amino)naphthalen-1-yl)oxy)pyridin-3-yl)-N-(piperidin-3-yl)pyrimidin-2-amine]  0.35 µM
8. Cc1ccc2c(NS(=O)(=O)N3CCCC3)cccc2c1Oc1ncccc1-c1ccnc(N[C@H]2CCCNC2)n1 [Example 108, (S)—N-(6-Methyl-5-((3-(2-(piperidin-3-ylamino)pyrimidin-4-yl)pyridin-2-yl)oxy)naphthalen-1-yl)pyrrolidine-1-sulfonamide hydrochloride]  0.298 µM
9. Cc1ccc2c(NCc3ccccn3)c(F)ccc2c1Oc1ncccc1-c1ccnc(N[C@H]2CCCNC2)n1 [Example 296, (S)-4-(2-((6-Fluoro-2-methyl-5-((pyridin-2-ylmethyl)amino)naphthalen-1-yl)oxy)pyridin-3-yl)-N-(piperidin-3-yl)pyrimidin-2-amine]  0.22 µM
10. Cc1ccc2c(NC(=O)[C@@H]3CC34CC4)cccc2c1Oc1ncccc1-c1ccnc(N[C@H]2CCCNC2)n1 (single isomer, unassigned) [Example 218]  0.174 µM
11. CCCS(=O)(=O)Nc1cccc2c(Oc3ncccc3-c3ccnc(N[C@H]4CCCNC4)n3)c(C)ccc12 [Example 104, (S)—N-(6-Methyl-5-(3-(2-(piperidin-3-ylamino)pyrimidin-4-yl)pyridin-2-yloxy)naphthalen-1-yl)propane-1-sulfonamide hydrochloride]  0.131 µM
12. Cc1ccc2c(NC(=O)Cc3ccccc3F)cccc2c1Oc1ncccc1-c1ccnc(N[C@H]2CCCNC2)n1 [Example 177, (S)-2-(2-Fluorophenyl)-N-(6-methyl-5-((3-(2-(piperidin-3-ylamino)pyrimidin-4-yl)pyridin-2-yl)oxy)naphthalen-1-yl)acetamide]  0.108 µM
13. Cc1ccc2c(NC(=O)Cc3ccccc3)cccc2c1Oc1ncccc1-c1ccnc(N[C@H]2CCCNC2)n1 [Example 184, N-[6-Methyl-5-[[3-[2-[[(3S)-3-piperidyl]amino]pyrimidin-4-yl]-2-pyridyl]oxy]-1-naphthyl]-2-phenyl-acetamide]  0.1 µM
14. Cc1ccc2c(Oc3ncccc3-c3ccnc(N[C@H]4CCCNC4)n3)c(C)ccc2c1NC(=O)C1CC1 [Example 284, (S)—N-(2,6-Dimethyl-5-((3-(2-(piperidin-3-ylamino)pyrimidin-4-yl)pyridin-2-yl)oxy)Naphthalen-1-yl)cyclopropanecarboxamide]  0.0982 µM
15. Cc1ccc2c(Oc3ncccc3-c3ccnc(N[C@H]4CCCNC4)n3)c(C)ccc2c1NS(=O)(=O)CCC(F)(F)F [Example 318, (S)—N-(2,6-Dimethyl-5-((3-(2-(piperidin-3-ylamino)pyrimidin-4-yl)pyridin-2-yl)oxy)naphthalen-1-yl)-3,3,3-trifluoropropane-1-sulfonamide]  0.0417 µM
16. Cc1ccc2c(NC(=O)[C@@H]3CC34CC4)c(F)ccc2c1Oc1ncccc1-c1ccnc(N[C@@H]2CNC[C@H](C)C2)n1 (single isomer, unassigned) [Example 389]  0.0417 µM
17. Cc1ccc2c(NC(=O)[C@@H]3CC34CCC4)cccc2c1Oc1ncccc1-c1ccnc(N[C@H]2CCCNC2)n1 (single isomer, unassigned) [Example 340]  0.0177 µM
18. Cc1ccc2c(NS(=O)(=O)Cc3ccc(Cl)cc3)cccc2c1Oc1ncccc1-c1ccnc(N[C@H]2CCCNC2)n1 [Example 143, (S)-1-(4-Chlorophenyl)-N-(6-methyl-5-((3-(2-(piperidin-3-ylamino)pyrimidin-4-yl)pyridin-2-yl)oxy)naphthalen-1-yl)methanesulfonamide]  0.017 µM
19. Cc1ccc2c(NS(=O)(=O)Cc3ccccc3F)cccc2c1Oc1ncccc1-c1ccnc(N[C@H]2CCCNC2)n1 [Example 145, (S)-1-(2-Fluorophenyl)-N-(6-methyl-5-((3-(2-(piperidin-3-ylamino)pyrimidin-4-yl)pyridin-2-yl)oxy)naphthalen-1-yl)methanesulfonamide]  0.015 µM
20. CCCS(=O)(=O)Nc1c(F)ccc2c(Oc3ncccc3-c3ccnc(N[C@@H]4CNC[C@H](C)C4)n3)c(C)ccc12 [Example 367, N-(2-Fluoro-6-methyl-5-((3-(2-(((3S,5R)-5-methylpiperidin-3-yl)amino)pyrimidin-4-yl)pyridin-2-yl)oxy)naphthalen-1-yl)propane-1-sulfonamide]  0.0145 µM
21. Cc1ccc2c(NS(=O)(=O)Cc3cccc(F)c3F)c(F)ccc2c1Oc1ncccc1-c1ccnc(N[C@H]2CCCNC2)n1 [Example 189, (S)-1-(2,3-Difluorophenyl)-N-(2-fluoro-6-methyl-5-((3-(2-(piperidin-3-ylamino)pyrimidin-4-yl)pyridin-2-yl)oxy)naphthalen-1-yl)methanesulfonamide]  0.00507 µM

Same assay, conditions: Table 2; read-out: XBP1s-luc 293 LUC (IC50)

In order of rising IC50:
1. CCC(F)(F)CS(=O)(=O)Nc1c(F)ccc2c(Oc3ncccc3-c3ccnc(N[C@@H]4CNC[C@H](C)C4)n3)c(C)ccc12 [Example 486, 2,2-Difluoro-N-[2-fluoro-6-methyl-5-[[3-[2-[[(3S,5R)-5-methyl-3-piperidyl]amino]pyrimidin-4-yl]-2-pyridyl]oxy]-1-naphthyl]butane-1-sulfonamide hydrochloride]  0.003 µM
2. Cc1ccc2c(NC[C@H](O)C(F)(F)F)cccc2c1Oc1ncccc1-c1ccnc(N[C@@H]2CNC[C@@H](F)C2)n1 (single isomer, unassigned) [Example 469, hydrochloride]  0.005 µM
3. Cc1ccc2c(NS(=O)(=O)N(C)CC(F)(F)F)c(F)ccc2c1Oc1ncccc1-c1ccnc(N[C@H]2CCCNC2)n1 [Example 427, 4-[2-[[6-Fluoro-2-methyl-5-[[methyl(2,2,2-trifluoroethyl)sulfamoyl]amino]-1-naphthyl]oxy]-3-pyridyl]-2-[[(3S)-3-piperidyl]amino]pyrimidine hydrochloride]  0.006 µM
4. Cc1ccc2c(NS(=O)(=O)CCC(C)(F)F)c(F)ccc2c1Oc1ncccc1-c1ccnc(N[C@@H]2CNC[C@H](C)C2)n1 [Example 485, 3,3-Difluoro-N-[2-fluoro-6-methyl-5-[[3-[2-[[(3S,5R)-5-methyl-3-piperidyl]amino]pyrimidin-4-yl]-2-pyridyl]oxy]-1-naphthyl]butane-1-sulfonamide hydrochloride]  0.006 µM
5. Cc1ccc2c(NS(=O)(=O)Cc3ccn(C)n3)c(F)ccc2c1Oc1ncccc1-c1ccnc(N[C@H]2CCCNC2)n1 [Example 449, N-[2-Fluoro-6-methyl-5-[[3-[2-[[(3S)-3-piperidyl]amino]pyrimidin-4-yl]-2-pyridyl]oxy]-1-naphthyl]-1-(1-methylpyrazol-3-yl)methanesulfonamide hydrochloride]  0.025 µM
6. Cc1ccc2c(NS(=O)(=O)N3CCCC3)c(F)ccc2c1Oc1ncccc1-c1ccnc(N[C@H]2CCCNC2)n1 [Example 428, N-[2-Fluoro-6-methyl-5-[[3-[2-[[(3S)-3-piperidyl]amino]pyrimidin-4-yl]-2-pyridyl]oxy]-1-naphthyl]pyrrolidine-1-sulfonamide hydrochloride]  0.028 µM
7. Cc1ccc2c(NS(=O)(=O)CC3CC3(F)F)c(F)ccc2c1Oc1ncccc1-c1ccnc(N[C@H]2CCCNC2)n1 (mixture of isomers) [Example 467, 1-(2,2-Difluorocyclopropyl)-N-(2-fluoro-6-methyl-5-((3-(2-((S)-piperidin-3-ylamino)pyrimidin-4-yl)pyridin-2-yl)oxy)naphthalen-1-yl)methanesulfonamide hydrochloride]  0.042 µM
8. Cc1ccc2c(NC[C@H](O)C(C)C)cccc2c1Oc1ncccc1-c1ccnc(N[C@H]2CCCNC2)n1 (single isomer, unassigned) [Example 461, hydrochloride]  0.042 µM
9. Cc1ccc2c(N[C@@H]3CCC[C@H]3O)cccc2c1Oc1ncccc1-c1ccnc(N[C@H]2CCCNC2)n1 (single isomer, unassigned) [Example 395, hydrochloride]  0.109 µM
10. Cc1ccc2c(NC[C@H](C)C#N)cccc2c1Oc1ncccc1-c1ccnc(N[C@H]2CCCNC2)n1 (single isomer, unassigned) [Example 415, hydrochloride]  0.269 µM

From patent US10968203B2, “Pyrimidinyl-pyridyloxy-naphthyl compounds and methods of treating IRE1-related diseases and disorders” (Genentech, Inc., priority 2017, dated 2021)
